Laboratory results as given in paper PMC9367663 (Journal of Enzyme Inhibition and Medicinal Chemistry, 2022).
pIC50: −log10 of the molar value. Read-outs that look alike come from different tables or passages of the source.

System: VSV*ΔG(Luc)-S virus harbouring the spike from the D614G variant
Assay type: cell-based, SARS-CoV-2

On1ccccc1=S [a, 1-hydroxy-2(1H)-pyridinethione]
inhibition of viral entry (0.5 µM): 15.33% | inhibition of viral entry (1 µM): 16.67% | inhibition of viral entry (10 µM): 74.34% | inhibition of viral entry (30 µM): 86.41% | pIC50 (read-out: IC50 viral entry): 5.28
